Measured values from US9145354B2, “Pharmaceutical compounds” (priority 2011, dated 2015).
pIC50: −log10 of the molar value. Where two headings read alike, the source gives them in different places.

Biological target: full length NS3/4a (Hepatitis C virus genotype 1b (isolate BK) (HCV), UniProt P26663)
Test: NS3 Protease Assay (Example A), FRET-based
Assay type: biochemical
Conditions: for IC50: HCV NS3 protease assay, full length NS3/4a, read-out: Assay A IC50 (μM) average; for pIC50: read-out: IC50 against the protease activity of the full length NS3/4a
In short: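 Full-length NS3/4a, made in-house, with an NS4A/B-derived peptide substrate carrying QXL520 quencher and 5-FAMsp fluorophore. Buffer 50 mM Tris pH8, 20 mM DTT, 1% CHAPS, 10% glycerol, 5% DMSO. Fluorescence followed 30 min at room temperature; IC50 from initial rates of replicate curves.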

[1] = stated as IC50 less than 30 μM or at least 40% inhibition at a concentration of 100 μM

Chain of full length NS3/4a (P26663 1027-1657): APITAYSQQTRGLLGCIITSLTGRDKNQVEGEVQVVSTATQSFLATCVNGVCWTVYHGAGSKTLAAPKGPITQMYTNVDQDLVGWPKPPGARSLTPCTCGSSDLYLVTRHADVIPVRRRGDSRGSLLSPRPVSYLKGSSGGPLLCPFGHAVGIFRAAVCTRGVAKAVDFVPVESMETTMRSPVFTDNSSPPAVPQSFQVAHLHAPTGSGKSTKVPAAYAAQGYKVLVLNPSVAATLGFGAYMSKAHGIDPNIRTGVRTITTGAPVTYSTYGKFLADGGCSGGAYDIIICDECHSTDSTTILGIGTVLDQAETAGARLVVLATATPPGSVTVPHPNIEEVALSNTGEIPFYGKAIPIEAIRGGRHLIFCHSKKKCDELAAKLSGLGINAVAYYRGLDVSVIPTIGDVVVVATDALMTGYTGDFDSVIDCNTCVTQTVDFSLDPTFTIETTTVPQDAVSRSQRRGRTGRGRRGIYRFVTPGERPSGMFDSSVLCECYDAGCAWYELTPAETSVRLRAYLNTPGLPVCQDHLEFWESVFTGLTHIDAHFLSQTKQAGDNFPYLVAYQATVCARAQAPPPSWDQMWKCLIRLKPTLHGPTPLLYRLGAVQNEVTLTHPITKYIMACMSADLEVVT

| SMILES | IC50 [µM] | pIC50 | other results |
| --- | --- | --- | --- |
| CC[C@@H](N[C@@H](C)CC(N)=O)c1ccc(Cl)c(C(=O)c2ccc(N)c(C#N)c2)c1F [Example 213, (3S)-3-{[(1R)-1-{3-[(4-amino-3-cyanophenyl)carbonyl]-4-chloro-2-fluorophenyl}propyl]amino} butanamide] | 0.35 | – | – |
| CC[C@@H](N)c1ccc(Cl)c(C(=O)c2ccc(Cl)nn2)c1F [Example 214, (1R)-1-{4-chloro-3-[(6-chloropyridazin-3-yl)carbonyl]-2-fluorophenyl}propan-1-amine] | – | – | inhibition at 10 µM (@ 10 uM): 51%; pIC50 [1]: > 4.52 |
| CC[C@@H](N[C@@H](C)CC(N)=O)c1ccc(Cl)c(C(=O)c2ccc(OC)c(C#N)c2)c1F [Example 215, (3S)-3-{[(1R)-1-{4-chloro-3-[(3-cyano-4-methoxyphenyl)carbonyl]-2-fluorophenyl}propyl]amino} butanamide] | 1.2 | 5.30 to 6.00 | – |
| CC[C@@H](N[C@H](C)CC(N)=O)c1ccc(Cl)c(C(=O)c2ccc(N)c(C#N)c2)c1F [Example 216, (3R)-3-{[(1R)-1-{3-[(4-amino-3-cyanophenyl)carbonyl]-4-chloro-2-fluorophenyl}propyl]amino} butanamide] | 0.48 | > 6.00 | – |
| CC[C@@H](N[C@H](C)CC(N)=O)c1ccc(Cl)c(C(=O)c2ccc(OC)c(C#N)c2)c1F [Example 217, (3R)-3-{[(1R)-1-{4-chloro-3-[(3-cyano-4-methoxyphenyl)carbonyl]-2-fluorophenyl}propyl]amino}butanamide] | – | – | inhibition at 30 µM (@ 30 uM): 38% |
| CC[C@@H](N[C@@H](CC(N)=O)C(C)C)c1ccc(Cl)c(C(=O)c2ccc(N)nc2)c1F [Example 218, (3S)-3-{[(1R)-1-{3-[(6-aminopyridin-3-yl)carbonyl]-4-chloro-2-fluorophenyl}propyl]amino}-4-methylpentanamide] | – | 5.30 to 6.00 | inhibition at 1 µM (@ 1 uM): 42% |
| CC[C@@H](N[C@H](CC(N)=O)C(C)C)c1ccc(Cl)c(C(=O)c2ccc(N)nc2)c1F [Example 219, (3R)-3-{[(1R)-1-{3-[(6-aminopyridin-3-yl)carbonyI]-4-chloro-2-fluorophenyl}propyl]amino}-4-methylpentanamide] | 7.5 | – | pIC50 [1]: > 4.52 |
| [2H]C([2H])([2H])C([2H])([2H])[C@@H](N[C@H](C)CC(N)=O)c1ccc(Cl)c(C(=O)c2ccc(N)c(Cl)c2)c1F [Example 220, (3R)-3-{[(1R)-1-{3-[(4-amino-3-chlorophenyl)carbonyl]-4-chloro-2-fluorophenyl}(2,2,3,3,3-deutero)propyl]amino} butanamide] | 0.26 | – | – |
| [2H]C([2H])([2H])C([2H])([2H])[C@@H](N[C@H](C)CC(N)=O)c1ccc(Cl)c(C(=O)c2ccc(N)c(C)c2)c1F [Example 221, (3R)-3-{[(1R)-1-{3-[(4-amino-3-methylphenyl)carbonyl]-4-chloro-2-fluorophenyl}(2,2,3,3,3-deutero)propyl]amino} butanamide] | 0.36 | – | – |
| CC[C@@H](N)c1ccc(Cl)c(C(=O)c2ccc(C#N)c(OC)c2)c1F [Example 222, 4-({3-[(1R)-1-aminopropyl]-6-chloro-2-fluorophenyl}carbonyl)-2-methoxybenzonitrile] | – | – | inhibition at 0.03 µM (@ 0.03 uM): 45%; pIC50 [1]: > 4.52 |
| COc1ccc([C@H](N[C@H](C)CC(N)=O)C2CC2)c(F)c1C(=O)c1cccc(F)c1 [Example 223, (3R)-3-{[(R)-cyclopropyl({2-fluoro-3-[(3-fluorophenyl)carbonyl]-4-methoxyphenyl})methyl]amino}butanamide] | 3.1 | 5.30 to 6.00 | – |
| CC[C@H](CC(N)=O)N[C@H](CC)c1ccc(Cl)c(C(=O)c2ccc(N)nc2)c1F [Example 226, (3R)-3-{[(1R)-1-{3-[(6-aminopyridin-3-yl)carbonyl]-4-chloro-2-fluorophenyl}propyl]amino}pentanamide] | 1.1 | 5.30 to 6.00 | – |
| CC[C@@H](N[C@H](C)CC(N)=O)c1ccc(Cl)c(C(=O)c2cccc(O)c2)c1F [Example 228, (3R)-3-{[(1R)-1-{4-chloro-2-fluoro-3-[(3-hydroxyphenyl)carbonyl]phenyl}propyl]amino}butanamide] | 0.73 | > 6.00 | – |
